One data set deals with dengue virus type 2. Description: Antiviral activity against DENV2 16681 infected in human Huh-7 cells assessed as reduction in viral replication at MOI of 1 to 5 incubated for 3 days. The following applies: Dengue virus, 16681, Huh-7, 72 h. The class given is functional, organism-based.
The subject of another data set is Chikungunya virus. Kind of data set: Antiviral activity against CHIKV S27 infected in human Huh-7 cells at MOI of 0.25 incubated for 2 days and measured by ATPLite assay. The class given is functional, organism-based. Conditions: S27, Huh-7, 48 h.
Another data set relates to Hepatitis C virus. Description: Antiviral activity against HCV genotype 1b infected in human Huh7 cells incubated for 3 days and measured by luciferase reporter gene assay. It is filed as functional, organism-based, Hepacivirus hominis. The following applies: subtype 1b, Huh-7, 72 h. On the technique in general: Reporter assays use an easily measured gene product as a stand-in for the process of interest.

Data set [1] in a line: Cytotoxicity against human Huh-7 cells measured after 2 days by ATPLite-based viability assay. It is filed as toxicity, cell-based. Conditions: time 2 day. (Cellular ATP, detected with luciferase, serves as a proxy for viable cell number.)
Data set [2] in a line: Stability of compound in mouse plasma assessed as half-life incubated for 24 hrs and assessed as half-life at 1 uM by LC-MS/MS analysis. It is filed as ADME, cell-free.
Data set [3] is described as follows: AUClast in male C57BL/6 mouse at 50 mg/kg, sc measured by LC-MS/MS analysis. It is filed as ADME, organism-based. The following applies: in vivo.
Data set [4] is described as follows: Tmax in male C57BL/6 mouse at 50 mg/kg, po measured by LC-MS/MS analysis. It is filed as ADME, organism-based. The following applies: in vivo.
Data set [5] in a line: Stability of compound in simulated gastric fluid incubated for 6 hrs at 1 uM and assessed as compound remaining after 6 hrs by LC-MS/MS analysis. The class given is ADME. The following applies: read-out: Stability.
Data set [6] in a line: Stability of compound in simulated gastric fluid incubated for 6 hrs and assessed as half-life at 1 uM by LC-MS/MS analysis. The class given is ADME.
Data set [7] in a line: AUClast in male C57BL/6 mouse at 50 mg/kg, po measured by LC-MS/MS analysis. The class given is ADME, organism-based. Conditions: in vivo.
Data set [8] in a line: Stability of compound in fasted state simulated intestinal fluid incubated for 6 hrs and assessed as half-life at 1 uM by LC-MS/MS analysis. It is filed as ADME.
Data set [9] can be described thus: Stability of compound in human plasma assessed as half-life incubated for 24 hrs and assessed as half-life at 1 uM by LC-MS/MS analysis. The class given is ADME, cell-free.
For a further data set, the system named is Sindbis virus. Description: Antiviral activity against SINV AR339 infected in human Huh-7 cells measured by cytopathic effect inhibition assay. It is filed as functional, organism-based. The following applies: AR339, Huh-7. On the technique in general: Cytopathic effects are the visible damage that an infection or toxin causes in cultured cells.
Data set [10] is described as follows: Cmax in male C57BL/6 mouse at 50 mg/kg, sc measured by LC-MS/MS analysis. The class given is ADME, organism-based. On the set-up: dose 50 mg/kg, route sc. The following applies: in vivo.
The nature of data set [11]: Tmax in male C57BL/6 mouse at 50 mg/kg, sc measured by LC-MS/MS analysis. Conditions: in vivo. The class given is ADME, organism-based.
Data set [12] can be described thus: Cmax in male C57BL/6 mouse at 50 mg/kg, po measured by LC-MS/MS analysis. On the set-up: dose 50 mg/kg, route po. The class given is ADME, organism-based. The following applies: in vivo.
The nature of data set [13]: Tlast in male C57BL/6 mouse at 50 mg/kg, po measured by LC-MS/MS analysis. It is filed as ADME, organism-based. Conditions: in vivo.
Data set [14] in a line: Metabolic stability in mouse liver microsomes preincubated for 5 mins followed by addition of NADPH and assessed as intrinsic clearance by LC-MS/MS analysis. It is filed as ADME, Microsome. The following applies: read-out: CLH.
The nature of data set [15]: Tlast in male C57BL/6 mouse at 50 mg/kg, sc measured by LC-MS/MS analysis. It is filed as ADME, organism-based. Conditions: in vivo.
Data set [16] in a line: Metabolic stability in human liver microsomes assessed as intrinsic clearance preincubated for 5 mins followed by addition of NADPH and assessed as intrinsic clearance by LC-MS/MS analysis. The class given is ADME, Microsome. Conditions: read-out: CLH.

pEC50: −log10 of the molar value. Where only a bound is given, the exact number is not on record here.

The pEC50 is the negative decadic logarithm of the EC50, by convention in mol/L. What is called CC50 is the concentration at which the toxic effect on the cells reaches its halfway point. A low value points to greater toxicity to the cells. In the case of `CC(C)OC(=O)[C@H](C)NP(=O)(OC[C@H]1O[C@@H](n2ccc(=O)[nH]c2=O)[C@@]2(CCO2)[C@@H]1O)Oc1ccccc1` (stereo partly specified), the pEC50 with dengue virus type 2 is under 4.30; with Chikungunya virus, under 4.00; in the data set on Hepatitis C virus, 4.67. The compound also gave a CC50 at 48 h in [1] of over 100 µM.

Take `CC(C)OC(=O)[C@H](C)NP(=O)(OC[C@H]1O[C@@H](n2ccc(=O)[nH]c2=O)[C@@]2(CCS2)[C@@H]1O)Oc1ccccc1` (stereo partly specified): the pEC50 in the data set on dengue virus type 2 is 4.58; in the data set with Chikungunya virus, 4.65; in the data set with Hepatitis C virus, 5.93. In data set [1], this compound gave a CC50 at 48 h of over 100 µM.

For the compound `CC(C)OC(=O)[C@H](C)NP(=O)(OC[C@@]1(F)O[C@@H](n2ccc(=O)[nH]c2=O)[C@@]2(CCO2)[C@@H]1O)Oc1ccccc1` (stereo partly specified), the pEC50 with dengue virus type 2, in the data set on Chikungunya virus and with Hepatitis C virus was under 4.00 throughout. In data set [1], this compound yielded a CC50 at 48 h of over 100 µM.

What is called half-life is how long it takes for the measured level to halve. A word on the Tmax: it is the time from dosing to the highest level. As for `CC(C)OC(=O)[C@H](C)NP(=O)(OC[C@@]1(F)O[C@@H](n2ccc(=O)[nH]c2=O)[C@@]2(CCS2)[C@@H]1O)Oc1ccccc1` (stereo partly specified), the half-life at 1 µM in [2] is under 0.4 h; in [6], over 6 h; in data set [8] it was 0.2 h; in [9], over 30 h. Besides, the AUClast in data set [3] was determined as 10000 ng·h/g; in data set [7], 3050 ng·h/g. Further, the Tmax in [4] and in [11] was 2 h throughout. In data set [5], the remaining at 6 h, 1 µM was 93%. Also, the pEC50 is 4.55 with dengue virus type 2, 5.49 in the data set on Chikungunya virus, 5.59 in the data set with Hepatitis C virus and 5.21 with Sindbis virus. In addition, the values for the Cmax in data set [10] and in [12] were 2060 ng/mg and 637 ng/mg, respectively. Moreover, in data set [1], the CC50 at 48 h is over 100 µM. Besides, the Tlast in data set [13] and in [15] was 7 h in each case. Besides, the microsomal CLint in data set [14] and in data set [16] was over 347 µL/min/mg throughout.

As for `CC(C)OC(=O)[C@H](C)N[P@@](=O)(OC[C@@]1(F)O[C@@H](n2ccc(=O)[nH]c2=O)[C@@]2(CCS2)[C@@H]1O)Oc1ccccc1`, the negative logarithm of the EC50 (pEC50) in the data set with dengue virus type 2 is 4.53; in the data set with Chikungunya virus, 5.50; with Hepatitis C virus it was 5.66; with Sindbis virus, 5.24. In data set [1], the CC50 at 48 h is over 100 µM.

As to `CC(C)OC(=O)[C@H](C)N[P@](=O)(OC[C@@]1(F)O[C@@H](n2ccc(=O)[nH]c2=O)[C@@]2(CCS2)[C@@H]1O)Oc1ccccc1`, the pEC50 is 4.38 with dengue virus type 2, 5.34 in the data set on Chikungunya virus, 5.68 in the data set on Hepatitis C virus and 5.23 in the data set with Sindbis virus. Moreover, in [1], the CC50 at 48 h is over 100 µM.

In the case of `CC(C)OC(=O)C(C)NP(=O)(OC[C@@]1(N=[N+]=[N-])O[C@@H](n2ccc(=O)[nH]c2=O)[C@@]2(CCS2)[C@@H]1O)Oc1ccccc1` (single isomer, unassigned), the pEC50 in the data set with dengue virus type 2 was under 4.00; with Chikungunya virus, under 4.00; in the data set on Hepatitis C virus it was 5.55. Moreover, in data set [1], the CC50 at 48 h was over 100 µM.

With `CCCCOC(=O)C(C)NP(=O)(OC[C@@]1(F)O[C@@H](n2ccc(=O)[nH]c2=O)[C@@]2(CCS2)[C@@H]1O)Oc1ccccc1` (single isomer, unassigned), the pEC50 in the data set with dengue virus type 2 was 4.54; with Chikungunya virus, 5.54; in the data set on Hepatitis C virus, 5.72; in the data set with Sindbis virus, 5.33. The compound also showed a half-maximal cytotoxic concentration (CC50) at 48 h in data set [1] of over 100 µM.

The record behind these values is ChEMBL document CHEMBL5113559, “From Oxetane to Thietane: Extending the Antiviral Spectrum of 2'-Spirocyclic Uridines by Substituting Oxygen with Sulfur” (ACS Med Chem Lett, 2022).
